Test results from US7132547B2, “Preventives/remedies for urinary disturbance” (priority 2001, dated 2006).
Where a name gives a salt, the structure may show the parent alone. Each block holds one compound with its values, some of them ahead of it.

Columns and labels:
[1] = target: T1, human erythrocyte-derived acetylcholinesterase (Homo sapiens, UniProt P22303); experiment: Measurement of acetylcholinesterase inhibitory activity (acetylthiocholine / Ellman method); type: biochemical; details: 50% inhibition concentration, repeated at least three times, read-out: AchE: IC50
T1 construct: Human erythrocyte-drived acetylcholinesterase (Sigma) was dissolved in distilled water; purchased Sigma; host or cells: human erythrocytes (natural source)
Experimental: a) Measurement of Acetylcholinesterase Inhibitory Activity
Acetylcholinesterase inhibitory activity of Example compounds was measured using human erythrocyte-derived acetylcholinesterase by an acetylthiocholine method (Ellman method).
Human erythrocyte-drived acetylcholinesterase (Sigma) was dissolved in distilled water to the concentration of 0.2 IU/mL to obtain an enzyme specimen. 20 μL of a drug solution, 30 μL of 80 mM Tris-HCL (pH 7.4), 50 μL of an enzyme specimen and 50 μL of 5 mM 5,5-dithio-bis (2-nitrobenzoic acid)(Sigma) were dispensed on a 96-well microplate, and this was shaken for 10 seconds. 50 μL of 4 mM acetylthiocholine iodide (Sigma) was added, this was shaken again and, immediately after, increase in absorbance at 414 nm was measured at 30 second intervals for 10 minutes. Enzyme activity was measured by the following equation: R=5.74×10^−7×ΔA (wherein R represents enzyme activity (mol), and ΔA represents increase in absorbance at 414 nm)
Regarding each compound, the experiment was repeated at least three times to obtain 50% inhibition concentration (IC50). According to the similar method to the above-mentioned, acetylcholinesterase inhibitory activity of distigmine which is a known acetylcholinesterase inhibitor was measured.

[2] = target: T2, human adrenaline α1A receptor (Homo sapiens, UniProt P35348); experiment: Measurement of α1A receptor binding inhibitory activity ([3H]-Prazosin binding to CHO-K1 membrane fraction); details: concentration reducing [3H]-Prazosin (2.5 nM) binding to the membrane fraction to 50%
T2 construct: expressed in transfected cells; membrane fraction
T2 sequence (P35348 1-466): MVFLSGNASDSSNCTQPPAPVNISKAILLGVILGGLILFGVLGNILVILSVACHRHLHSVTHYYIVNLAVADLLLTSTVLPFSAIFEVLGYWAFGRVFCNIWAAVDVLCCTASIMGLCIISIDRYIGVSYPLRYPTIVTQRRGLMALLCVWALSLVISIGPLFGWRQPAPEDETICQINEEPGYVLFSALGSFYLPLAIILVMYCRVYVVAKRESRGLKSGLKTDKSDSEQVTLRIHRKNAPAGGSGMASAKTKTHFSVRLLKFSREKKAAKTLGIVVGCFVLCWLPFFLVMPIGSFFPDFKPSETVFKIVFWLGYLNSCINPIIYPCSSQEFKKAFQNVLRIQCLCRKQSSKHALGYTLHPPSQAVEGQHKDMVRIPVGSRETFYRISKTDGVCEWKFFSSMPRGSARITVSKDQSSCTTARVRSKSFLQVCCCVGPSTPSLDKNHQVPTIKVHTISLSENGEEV
Experimental: b) Measurement of α1A Receptor Binding Inhibitory Activity
The following gene manipulation method was carried out according to the method described in a textbook (Miniatis et al., Molecular Cloning, Cold Spring Harbor Laboratory, 1989) or the method described in protocol attached to a reagent.
(i) Preparation of Expression Plasmid for Human Adrenaline α1A Receptor
An adrenaline α1A receptor gene was cloned from a human liver cDNA by a PCR method. A PCR reaction was performed with Gene Amp PCR System 9700 (Applied Biosystems) using 200 ng of a human liver cDNA library (TAKARA SHUZO Co., Ltd.) as a template and using TaKaRa Pyrobest DNA Polymerase (TAKARA SHUZO CO., Ltd) and adding each 50 pmol of a primer set 5′-[…]-3′ [SEQ ID No.: 1] and 5′-[…]-3[SEQ ID No.: 2] prepared making reference to a nucleotide sequence of an adrenaline α1A receptor gene which was reported by Hirasawa A. et al. (Biochem. Biophys. Res. Commun., 195, 902–909(1993)) (reaction condition: 45 cycles of 15 seconds at 94° C., and 3 minutes 30 seconds at 68° C.).
The obtained PCR fragment was digested with restriction enzymes Eco RI (TAKARA SHUZO Co. Ltd.) and Sal I. (TAKARA SHUZO Co. Ltd.), and agarose gel electrophoresis was performed to recover DNA fragments. The DNA fragments were mixed with an animal cell expression plasmid pMSR αneo (Administration No. A99–0013) which had been digested with Eco RI and Sal I, ligated with DNA Ligation Kit Ver. 2 (TAKARA SHUZO Co. Ltd.), and a competent cell of Esherichia coli JM109 was transformed to obtain a plasmid pMSR αneoA dreα1A.
(ii) Introduction of Plasmid for Expression of Human Adrenaline α1A Receptor into CHO-K1 Cell and Preparation of Membrane Fraction
CHO-K1 cells which had been subcultured in a 150 cm^2 culturing flask (Corning Coaster) using Ham F12 medium (Invitrogen) containing 10% fetal bovine serum (TRACE SCIENTIFIC) was peeled with 0.5 g/L trypsin-0.2 g/L EDTA(Invitrogen), cells were washed with D-PBS(−) (Invitrogen), centrifuged (1000 rpm, 5 min.), and suspended in D-PBS(−). […]

[3] = system: Hartley male guinea pigs loaded with phenylephrine; experiment: Pressure Flow Study using guinea pigs loaded with phenylephrine; type: in vivo, guinea pig; details: i.v., tamsulosin 0.01 mg/kg, Example 20 0.1 mg/kg, urethane-anesthetized, phenylephrine 3 μg/animal/min
Experimental: Hartley male guinea pigs (Slc) weighing 300 to 350 g was anesthetized with urethane (1.2 g/kg, i.p.), and a median was incised to expose bladder. Two polyethylene tubes were inserted into bladder, and one of them was used for injecting a physiological saline and the other was used for measuring a bladder internal pressure. A cannulae was inserted into a left femoral vein, and phenylephrine was continuously administered intravenously at 3 μg/animal/min until the completion of experiment. A physiological saline was injected into bladder at a rate of 0.3 mL/min, and injection was stopped when urination was confirmed. The urinated urine weight was measured with an electron balance (HX-400, A & D) at real time. Analogue data of bladder internal pressure and urine weight were inputted into an AD transducer (MP-100, BIOPAC Systems), and digital signals were analyzed with exclusive analyzing software (AcqKnowledge 3.5.3, BIOPAC Systems). The sampling rate of data was 10 Hz, and data of urination amount and urine flow rate were subjected to a lowcut filter at 0.5 Hz in order to remove noises. The value of urine weight was differentiated to calculate urine flow rate (Q), and maximum urine flow rate (Qmax) at urination and bladder internal pressure (Pves (Qmax)) at maximum urine flow were calculated. The urination weight 1 g was converted into 1 mL to calculate the urination amount, and divided by bladder volume to obtain voiding efficiency (Voiding Efficiency). Example compound was dissolved in DMSO, and the solution was intravenously administered at 0.5 mL/kg. 10 minutes after administration of test compound, urinary reflection was recorded again, and change in urine flow rate (ΔQmax), and change in bladder internal pressure (ΔPves(Qmax)) and voiding efficiency were assessed. The change in urine flow rate (ΔQmax) and change in bladder internal pressure (ΔPves. (Qmax)) were an amount of change (Δ value) obtained by subtracting each value before administration of test compound from each value after administration, and voiding efficiency was assessed by a relative value (% of pre-value) of after administration of test compound relative to before administration. Tamsulosin which is a known α1 receptor antagonist was measured similarly. A significance diffenence was tested by a Dunnett test by comparing with each value of a vehicle (DMSO)-administered group.

Hartley male guinea pigs = experiment: Effect on blood pressure in anesthetized guinea pigs; type: in vivo, guinea pig
Experimental: Hartley male guinea pigs (Slc) weighing 300 to 350 g was anesthetized with urethane (1.2 g/kg), and retained, a cervical region was incised to expose a left common carotid artery. A polyethylene tube filled with physiological saline containing heparin (10 U.I./ml) was inserted into an artery, and blood pressure was measured with a pressure transducer. A cannulae for administering test compound was inserted into a vein at an end of left hind leg, and a test compound dissolved in distilled water was administered therethrough at 0.5 mL/kg. The blood pressure was recorded at 20 Hz using an analogue data inputting apparatus (MP-100, BIOPAC Systems), and analyzed by analyzing software (AcqKnowledge 3.5.3, BIOPAC Systems). Example compound and tamsulosin were studied for a dose at which effects were recognized in the aforementioned test a (Pressure Flow Study), and an average blood pressure just before administration of test compound and an average blood pressure 15 minutes after administration were measured. Data were statistically treated by Paired t-test.

[4] = 10 minutes after administration minus before

T1 sequence (P22303 32-617 isoform P22303-2 limits assumed): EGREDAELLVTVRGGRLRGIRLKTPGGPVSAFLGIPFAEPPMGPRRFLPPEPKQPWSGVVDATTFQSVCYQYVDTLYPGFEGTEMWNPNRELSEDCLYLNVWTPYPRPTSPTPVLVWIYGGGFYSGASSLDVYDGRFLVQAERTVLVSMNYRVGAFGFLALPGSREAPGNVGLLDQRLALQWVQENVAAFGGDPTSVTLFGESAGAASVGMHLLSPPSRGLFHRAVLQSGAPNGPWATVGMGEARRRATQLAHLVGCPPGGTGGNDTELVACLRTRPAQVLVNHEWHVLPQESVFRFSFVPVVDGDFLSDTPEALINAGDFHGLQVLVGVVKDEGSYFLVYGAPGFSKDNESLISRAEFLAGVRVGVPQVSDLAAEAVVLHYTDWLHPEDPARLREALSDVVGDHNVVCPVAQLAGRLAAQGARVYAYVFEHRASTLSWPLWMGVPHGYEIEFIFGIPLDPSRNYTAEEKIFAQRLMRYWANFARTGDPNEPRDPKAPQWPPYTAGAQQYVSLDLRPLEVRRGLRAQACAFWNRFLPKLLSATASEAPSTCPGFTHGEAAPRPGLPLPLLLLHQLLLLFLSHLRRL

Compound: Cl.O=C1CCc2cc(C(=O)[C@H]3CC[C@H](CNCCc4ccccc4)CC3)cc3c2N1CC3 (stereo in doubt)
melting point: 252 to 254 °C

Compound: CN(CCCCCCN(C)C(=O)Oc1ccc[n+](C)c1)C(=O)Oc1ccc[n+](C)c1 [Distigmine, distigmine, reference compound]
IC50 [1]: 723 nM

Compound: O=C(CCC1CCN(CCc2cccc(F)c2)CC1)c1cc2c3c(c1)CCN3C(=O)CC2 [Example 84, 8-(3-[1-[2-(3-Fluorophenyl)ethyl]-4-piperidinyl]propanoyl)-1,2,5,6-tetrahydro-4H-pyrrolo[3,2,1-ij]quinolin-4-one hydrochloride]
IC50 [1]: 169 nM | IC50 [2]: 236 nM

Compound: CCOc1ccccc1OCCN[C@H](C)Cc1ccc(OC)c(S(N)(=O)=O)c1 [tamsulosin, Tamsulosin, reference compound]
change in bladder internal pressure (ΔPves(Qmax)) [3, 4]: −3.56 ± 1.09 cmH2O | change in maximum urine flow rate (ΔQmax) [3, 4]: 0.036 ± 0.014 mL/s | voiding efficiency (% of pre-value) ([3]; after administration relative to before): 118.5 ± 13.4 % | reduction of blood pressure (Hartley male guinea pigs; 0.01 mg/kg, i.v.): about 40% | Blood pressure, after administration (Hartley male guinea pigs; average blood pressure 15 minutes after i.v. administration, tamsulosin 0.01 mg/kg, Example 20 0.1 mg/kg): 32.9 ± 3.0 mmHg | Blood pressure, before administration (Hartley male guinea pigs; average blood pressure just before i.v. administration, tamsulosin 0.01 mg/kg, Example 20 0.1 mg/kg): 54.5 ± 2.5 mmHg

Compound: COc1ccccc1N1CCN(CCCNc2cc(=O)n(C)c(=O)n2C)CC1 [urapidil, reference compound]
IC50 [2]: 357 nM

Now from value to compound:

melting point: 211 to 213 °C
Compound: CC(Cc1ccccc1)N1CCC(CCC(=O)c2cc3c4c(c2)CCN4C(=O)CC3)CC1.Cl (racemic)

melting point: 235 to 237 °C
Compound: Cl.O=C(CCC1CCN(CC(O)c2ccccc2)CC1)c1cc2c3c(c1)CCN3C(=O)CC2 (racemic)

melting point: 111 to 113 °C
Compound: Cl.O=C(CCC1CCN(C2CCc3ccccc32)CC1)c1cc2c3c(c1)CCN3C(=O)CC2 (racemic)

melting point: 223 to 225 °C
Compound: Cl.O=C(CCC1CCN(C2CCc3ccccc3C2)CC1)c1cc2c3c(c1)CCN3C(=O)CC2 (racemic)
